Data: PMC9598407, “Identification of Staphylococcus aureus Penicillin Binding Protein 4 (PBP4) Inhibitors” (Antibiotics, 2022)
Converted amounts (≈) assume the structure as drawn.

Key:
S. aureus USA300 = test: Minimum inhibitory concentration (MIC) testing, strain USA300; assay type: cell-based, Staphylococcus aureus; settings: Staphylococcus aureus, USA300, read-out: Minimum inhibitory concentration
Experimental: (§1) The approach used was to initially search for compounds that reverse the antibiotic resistance profile of wild type cells to that of a pbp4 mutant. To define screening conditions three strains were employed, a wild type USA300 MRSA strain, an isogenic pbp4 deletion strain, and a complemented strain harboring a plasmid wildtype pbp4 copy. The antibiotic susceptibility profile of each strain was measured to determine the magnitude with which PBP4 affects resistance to various antibiotics (Table 1). […]. We anticipated that the greater dynamic range of the latter could provide a means to reliably screen for agents that inhibit PBP4 function. […].
(§2) S. aureus strain USA300 is a predominant cause of U.S. community-associated MRSA infections, whereas strain COL is a commonly studied hospital-associated MRSA strain. The S. aureus USA300 pbp4-null strain (USA300Δpbp4) and PBP4 complementation strain (USA300∆pbp4 pPBP4) have been previously described. Strain COLn is a laboratory derived tetracycline susceptible derivative of COL, whereas COLnex is a methicillin susceptible COLn derivative that has been cured of SCCmec thereby removing the mecA, which encodes PBP2a, and has been previously described. Strain CRB is a well-studied MRSA COLnex derivative that contains two amino acid substitutions (E183A and F241R) near the PBP4 active site and a 36-bp duplication 290-bp upstream of the pbp4 open reading frame leading to 20–40-fold overexpression of the gene. All strains were grown in Mueller Hinton (MH) broth at 37 °C, as indicated. Penicillin, streptomycin, ciprofloxacin, mupirocin, meropenem, and mitomycin C were purchased from Fisher Scientific (Waltham, MA, USA), whereas ceftobiprole was obtained from MedChemExpress LLC (Monmouth Junction, NJ, USA). The 30,000-member […]-EXP small molecule chemical library (Blocks 3–5) used in these studies was purchased from ChemBridge Corporation (San Diego, CA, USA).

S. aureus USA300∆pbp4 = test: MIC testing, strain USA300∆pbp4; assay type: cell-based, Staphylococcus aureus; settings: Staphylococcus aureus, USA300, read-out: Minimum inhibitory concentration
Experimental: as §1, §2

[1] = tested on: S. aureus USA300∆pbp4 pPBP4; test: microbe, parasite or virus in culture; assay type: cell-based; settings: Staphylococcus aureus, USA300, read-out: Minimum inhibitory concentration
S. aureus COLnex = test: MIC testing, strain COLnex; assay type: cell-based; settings: Staphylococcus aureus, read-out: Minimum inhibitory concentration
Experimental: (§3) To further evaluate their potential PBP4 inhibitor activity, prioritized compounds were tested for their ability to reverse PBP4 mediated antibiotic resistance in another S. aureus background using three isogenic strains that became available during our study (generous gift from Dr. S. Chatterjee; University of Maryland). These strains included: (1) COLnex, which is a methicillin susceptible strain, (2) CRB, a methicillin/ceftobiprole-resistant strain of COLnex that overproduces PBP4, and (3) CRB∆pbp4, a methicillin susceptible strain of CRB lacking the pbp4 gene.
as §2

S. aureus CRB = test: MIC testing, strain CRB (PBP4 overproducer); assay type: cell-based, Staphylococcus aureus; settings: for MIC: Staphylococcus aureus, read-out: Minimum inhibitory concentration, strain CRB
Experimental: as §3, §2

S. aureus CRB∆pbp4 = test: MIC testing, strain CRB∆pbp4; assay type: cell-based; settings: Staphylococcus aureus, read-out: Minimum inhibitory concentration
Experimental: as §3, §2

S. aureus strain CRB = test: Fractional inhibitory concentration checkerboard, ceftobiprole + putative PBP4 inhibitor, strain CRB; assay type: cell-based, Staphylococcus aureus; settings: Staphylococcus aureus, read-out: CRB Alone BPR (ceftobiprole MIC alone)
Experimental: (§4) Fractional inhibitory testing was performed in checkerboard format to determine whether putative PBP4 inhibitors potentiated the antimicrobial effects of β-lactams toward S. aureus strains USA300 and CRB, as previously described. To do so, in triplicate 10^5 CFU of each strain (10 µL) was added to individual wells of a microtiter plate containing 90 µL MH media. […] Plates were incubated at 37 °C for 16–20 h and the lowest concentration of each test agent that inhibited bacterial growth alone or in combination was determined by the naked eye. The fractional inhibitory concentration (FIC) index was calculated using the formula: FIC of A (MIC of drug A in combination/MIC of drug A alone) + FIC B ([…]/MIC of drug B alone). A synergistic interaction was defined as a FICI value of less than 0.5, an additive interaction was defined as a FICI value between 0.5 and 1.0, an indifferent interaction was defined as a FICI value between 1.0 and 4.0, and an antagonistic interaction was defined as a FICI value of more than 4.0 [46].

[2] = tested on: S. aureus strain CRB∆pbp4; test: Fractional inhibitory concentration checkerboard, ceftobiprole + putative PBP4 inhibitor, strain CRB∆pbp4; assay type: cell-based, Staphylococcus aureus; settings: Staphylococcus aureus, read-out: CRB∆pbp4 Alone BPR (ceftobiprole MIC alone)
S. aureus strain USA300 = test: microbe, parasite or virus in culture; assay type: cell-based; settings: Staphylococcus aureus, USA300, read-out: Ceftobiprole resistance (MIC) without compound
Experimental: as §4

| SMILES | MIC (S. aureus USA300) | MIC (S. aureus USA300∆pbp4) | MIC [1] | MIC (S. aureus COLnex) | Fold difference in ceftobiprole resistance (S. aureus CRB; PBP4-overexpressor CRB versus CRB∆pbp4) | MIC (S. aureus CRB) | MIC (S. aureus CRB∆pbp4) | MIC (S. aureus strain CRB) | MIC [2] | MIC (S. aureus strain USA300) |
| --- | --- | --- | --- | --- | --- | --- | --- | --- | --- | --- |
| Nc1nc(/C(=N/O)C(=O)N[C@@H]2C(=O)N3C(C(=O)O)=C(/C=C4\CCN([C@@H]5CCNC5)C4=O)CS[C@H]23)ns1 [BPR, ceftobiprole] | 0.5 µg/mL (≈ 0.935 µM) | 0.25 µg/mL (≈ 0.468 µM) | 0.5 µg/mL (≈ 0.935 µM) | 0.25 µg/mL (≈ 0.468 µM) | 512 fold | 128 µg/mL (≈ 239 µM) | 0.25 µg/mL (≈ 0.468 µM) | 128 µg/mL | 0.25 µg/mL | 1 µg/mL |
| NC[C@H]1O[C@H](O[C@H]2[C@H](O)[C@@H](O[C@H]3O[C@H](CO)[C@@H](O)[C@H](N)[C@H]3O)[C@H](N)C[C@@H]2N)[C@H](N)C[C@@H]1O [TOB, tobramycin] | 1 µg/mL (≈ 2.14 µM) | 1 µg/mL (≈ 2.14 µM) | 1 µg/mL (≈ 2.14 µM) | 0.06 µg/mL (≈ 0.128 µM) | – | 0.06 µg/mL (≈ 0.128 µM) | 0.06 µg/mL (≈ 0.128 µM) | – | – | – |
